Assay results as given in patent US20140141459A1, “PENTRAXIN 3 ASSOCIATION WITH ASTHMA” (THE REGENTS OF THE UNIVERSITY OF MICHIGAN, priority 2011, published 2014).

Columns and labels:
[1] = test system: A. fumigatus-induced asthma model; assay: Cytokine levels in whole lung homogenate in A. fumigatus-induced asthma model; type: in vivo, mice; details: day 30 after conidia challenge
Experimental: (§1) C57BL/6 mice were sensitized via intraperitoneal (i.p.) and subcutaneous (s.c.) route with a commercially available preparation of soluble A. fumigatus antigens dissolved in 0.2 ml of IFA. After three intranasal instillations of Aspergillus antigen, each spaced one-week apart, each mouse received 1×10^7 swollen conidia suspended in 30 μl of PBS tween 80 (0.1%; vol/vol) via intratracheal (i.t.) administration. All mice were euthanized with an overdose of Nembutal and lung homogenates were collected immediately following euthanization. Mouse PTX3 ELISA was completed on lung homogenate supernatant.
(§2) A. fumigatus-Induced Asthma Model was Established as Described in Example 1.
(§3) Mice were treated every other day from day 0 to 15 or from day 15 to 30 with PBS or human PTX3 (R&D System, Minneapolis, Minn., USA; 10 μg/injection). At days 15 and 30 after conidia challenge, bronchial hyper-responsiveness was assessed in a Buxco™ plethysmograph (Buxco, Troy, N.Y.) after intravenous methacholine injection (420 μg/Kg). Other parameters were determined after the assessment of airway hyper-responsiveness.
To investigate whether the treatment with exogenous PTX3 modified the cytokine profile in asthma, the levels of different cytokines in whole lungs homogenate from PBS and PTX3-treated mice at day 30 after conidia challenge were measured.

[2] = test system: A. fumigatus-induced asthma model; assay: Bronchial hyper-responsiveness (Buxco plethysmograph, methacholine) in A. fumigatus-induced asthma model; type: in vivo, mice; details: vs PBS
Experimental: as §1, §2, §3

## PTX3: human PTX3 (pentraxin 3) polypeptide from R&D System, administered to mice at 10 μg/injection
[1]; vs PBS treatment
  increase in IL-4: 1.8 fold
  increase in IL-10: 1.8 fold
  increase in IL-17: 3.7 fold
  reduction in IFN-γ: 1.8 fold
[1]; vs control group
  IL-18 levels: significantly increased
  increase in CCL22 (MDC) levels: 1.7 fold
  increase in IL-1α levels: 1.7 fold
  increase in IL-1β levels: 1.7 fold
[2]; treated every other day from day 0 to 15, 10 μg/injection
  airway resistance at day 15 after conidia: significantly increased
[2]; treated every other day from day 15 to 30, 10 μg/injection
  airway resistance at day 30 after conidia: significantly decreased
